In patent US20100168176A1, “NOVEL COMPOUNDS, PHARMACEUTICAL COMPOSITIONS CONTAINING SAME, AND METHODS OF USE FOR SAME” (FASGEN LLC, priority 2006, published 2010):
In brackets after ≈: the same amount, converted by molar mass.

Legend:
FAO = FAO SC 150 / FAO Max; conditions: for FAO Max: at the concentration given under E18
[1] = system: MCF-7 human breast cancer cells; test: XTT cytotoxicity assay, MCF-7 (M); format: cell-based; conditions: Homo sapiens, MCF7; (M) or no code; MCF-7, 72 hours
Procedure: The XTT assay is a non-radioactive alternative for the [^51Cr] release cytotoxicity assay. XTT is a tetrazolium salt that is reduced to a formazan dye only by metabolically active, viable cells. The reduction of XTT is measured spectrophotometrically as OD490-OD650.
To measure the cytotoxicity of specific compounds against cancer cells, 9×10^3 MCF-7 human breast cancer cells, obtained from the American Type Culture Collection are plated per well in 96 well plates in DMEM medium with 10% fetal bovine serum, insulin, penicillin, and streptomycin. Following overnight culture at 37° C. and 5% CO2, the compounds to be tested, dissolved in DMSO, are added to the wells in 1 μl volume at the following concentrations: 80, 40, 20, 10, 5, 2.5, 1.25, and 0.625 μg/ml in triplicate. Additional concentrations are tested if required. 1 μl of DMSO is added to triplicate wells are the vehicle control. C75 is run at 40, 20, 10, […], 10, and 5 in triplicate as positive controls.
After 72 hours of incubation, cells are incubated for 4 hours with the XTT reagent as per manufacturer's instructions (Cell Proliferation Kit II (XTT) Roche). Plates are read at OD490 and OD650 on a Molecular Devices SpectraMax Plus Spectrophotometer. Three wells containing the XTT reagent without cells serve as the plate blank. XTT data are reported as OD490-OD650. Averages and standard error of the mean are computed using SOFTmax Pro software ([…]).
The IC50 for the compounds is defined as the concentration of drug leading to a 50% reduction in OD400-OD650 compared to controls. The OD400-OD650 are computed by the SOFTmax PRO software (Molecular Devices) for each compound concentration. IC50 is calculated by linear regression, plotting the FAS activity as percent of control versus drug concentrations. Linear regression, best-fit line, r^2, and 95% confidence intervals are determined using Prism Version 3.0 (Graph Pad Software).

OV = test: XTT cytotoxicity assay, OV; format: cell-based
purified human FAS = target: T1, purified human FAS (Homo sapiens, UniProt P49327); test: FAS enzymatic activity (malonyl-CoA dependent NADPH oxidation, OD340); format: biochemical; conditions: purified human FAS from ZR-75-1 cells
T1 construct: Human FAS was purified from cultured ZR-75-1 human breast cancer cells; endogenous in cells; host or cells: ZR-75-1 human breast cancer cells (ATCC); Purified by hypotonic lysis, PEG precipitations and Mono Q anion exchange
Procedure: Purification of FAS from ZR-75-1 Human Breast Cancer Cells.
Human FAS was purified from cultured ZR-75-1 human breast cancer cells obtained from the American Type Culture Collection. The procedure, adapted from Linn et al., 1981, and Kuhajda et al., 1994, utilizes hypotonic lysis, successive polyethyleneglycol (PEG) precipitations, and anion exchange chromatography. ZR-75-1 cells are cultured at 37° C. with 5% CO2 in RPMI culture medium with 10% fetal bovine serum, penicillin and streptomycin.
Ten T150 flasks of confluent cells are lysed with 1.5 ml lysis buffer (20 mM Tris-HCl, pH 7.5, 1 mM EDTA, 0.1 mM phenylmethanesulfonyl fluoride (PMSF), 0.1% Igepal CA-630) and dounce homogenized on ice for 20 strokes. The lysate is centrifuged in JA-20 rotor (Beckman) at 20,000 rpm for 30 minutes at 4° C. and the supernatant is brought to 42 ml with lysis buffer. A solution of 50% PEG 8000 in lysis buffer is added slowly to the supernatant to a final concentration of 7.5%. After rocking for 60 minutes at 4° C., the solution is centrifuged in JA-20 rotor (Beckman) at 15,000 rpm for 30 minutes at 4° C. Solid PEG 8000 is then added to the supernatant to a final concentration of 15%. After the rocking and centrifugation is repeated as above, the pellet is resuspended overnight at 4° C. in 10 ml of Buffer A (20 mM K2HPO4, pH 7.4). […] FAS protein concentration is determined using the Coomassie Plus Protein Assay Reagent (Pierce) according to manufacturer's specifications using BSA as a standard. […]
FAS activity is measured by monitoring the malonyl-CoA dependent oxidation of NADPH spectrophotometrically at OD340 in 96-well plates (Dils et al and Arslanian et al, 1975). […]
The assay is performed on a Molecular Devices SpectraMax Plus Spectrophotometer. […] Using the kinetic protocol, the wells are blanked on duplicate wells containing 100 μl of 100 mM K2HPO4, pH 6.5 and the plate is read at OD340 at 10 sec intervals for 5 minutes to measure any malonyl-CoA independent oxidation of NADPH. […] The plate is read again as above with the kinetic protocol to measure the malonyl-CoA dependent NADPH oxidation. […]

T1 sequence (P49327 whole entry): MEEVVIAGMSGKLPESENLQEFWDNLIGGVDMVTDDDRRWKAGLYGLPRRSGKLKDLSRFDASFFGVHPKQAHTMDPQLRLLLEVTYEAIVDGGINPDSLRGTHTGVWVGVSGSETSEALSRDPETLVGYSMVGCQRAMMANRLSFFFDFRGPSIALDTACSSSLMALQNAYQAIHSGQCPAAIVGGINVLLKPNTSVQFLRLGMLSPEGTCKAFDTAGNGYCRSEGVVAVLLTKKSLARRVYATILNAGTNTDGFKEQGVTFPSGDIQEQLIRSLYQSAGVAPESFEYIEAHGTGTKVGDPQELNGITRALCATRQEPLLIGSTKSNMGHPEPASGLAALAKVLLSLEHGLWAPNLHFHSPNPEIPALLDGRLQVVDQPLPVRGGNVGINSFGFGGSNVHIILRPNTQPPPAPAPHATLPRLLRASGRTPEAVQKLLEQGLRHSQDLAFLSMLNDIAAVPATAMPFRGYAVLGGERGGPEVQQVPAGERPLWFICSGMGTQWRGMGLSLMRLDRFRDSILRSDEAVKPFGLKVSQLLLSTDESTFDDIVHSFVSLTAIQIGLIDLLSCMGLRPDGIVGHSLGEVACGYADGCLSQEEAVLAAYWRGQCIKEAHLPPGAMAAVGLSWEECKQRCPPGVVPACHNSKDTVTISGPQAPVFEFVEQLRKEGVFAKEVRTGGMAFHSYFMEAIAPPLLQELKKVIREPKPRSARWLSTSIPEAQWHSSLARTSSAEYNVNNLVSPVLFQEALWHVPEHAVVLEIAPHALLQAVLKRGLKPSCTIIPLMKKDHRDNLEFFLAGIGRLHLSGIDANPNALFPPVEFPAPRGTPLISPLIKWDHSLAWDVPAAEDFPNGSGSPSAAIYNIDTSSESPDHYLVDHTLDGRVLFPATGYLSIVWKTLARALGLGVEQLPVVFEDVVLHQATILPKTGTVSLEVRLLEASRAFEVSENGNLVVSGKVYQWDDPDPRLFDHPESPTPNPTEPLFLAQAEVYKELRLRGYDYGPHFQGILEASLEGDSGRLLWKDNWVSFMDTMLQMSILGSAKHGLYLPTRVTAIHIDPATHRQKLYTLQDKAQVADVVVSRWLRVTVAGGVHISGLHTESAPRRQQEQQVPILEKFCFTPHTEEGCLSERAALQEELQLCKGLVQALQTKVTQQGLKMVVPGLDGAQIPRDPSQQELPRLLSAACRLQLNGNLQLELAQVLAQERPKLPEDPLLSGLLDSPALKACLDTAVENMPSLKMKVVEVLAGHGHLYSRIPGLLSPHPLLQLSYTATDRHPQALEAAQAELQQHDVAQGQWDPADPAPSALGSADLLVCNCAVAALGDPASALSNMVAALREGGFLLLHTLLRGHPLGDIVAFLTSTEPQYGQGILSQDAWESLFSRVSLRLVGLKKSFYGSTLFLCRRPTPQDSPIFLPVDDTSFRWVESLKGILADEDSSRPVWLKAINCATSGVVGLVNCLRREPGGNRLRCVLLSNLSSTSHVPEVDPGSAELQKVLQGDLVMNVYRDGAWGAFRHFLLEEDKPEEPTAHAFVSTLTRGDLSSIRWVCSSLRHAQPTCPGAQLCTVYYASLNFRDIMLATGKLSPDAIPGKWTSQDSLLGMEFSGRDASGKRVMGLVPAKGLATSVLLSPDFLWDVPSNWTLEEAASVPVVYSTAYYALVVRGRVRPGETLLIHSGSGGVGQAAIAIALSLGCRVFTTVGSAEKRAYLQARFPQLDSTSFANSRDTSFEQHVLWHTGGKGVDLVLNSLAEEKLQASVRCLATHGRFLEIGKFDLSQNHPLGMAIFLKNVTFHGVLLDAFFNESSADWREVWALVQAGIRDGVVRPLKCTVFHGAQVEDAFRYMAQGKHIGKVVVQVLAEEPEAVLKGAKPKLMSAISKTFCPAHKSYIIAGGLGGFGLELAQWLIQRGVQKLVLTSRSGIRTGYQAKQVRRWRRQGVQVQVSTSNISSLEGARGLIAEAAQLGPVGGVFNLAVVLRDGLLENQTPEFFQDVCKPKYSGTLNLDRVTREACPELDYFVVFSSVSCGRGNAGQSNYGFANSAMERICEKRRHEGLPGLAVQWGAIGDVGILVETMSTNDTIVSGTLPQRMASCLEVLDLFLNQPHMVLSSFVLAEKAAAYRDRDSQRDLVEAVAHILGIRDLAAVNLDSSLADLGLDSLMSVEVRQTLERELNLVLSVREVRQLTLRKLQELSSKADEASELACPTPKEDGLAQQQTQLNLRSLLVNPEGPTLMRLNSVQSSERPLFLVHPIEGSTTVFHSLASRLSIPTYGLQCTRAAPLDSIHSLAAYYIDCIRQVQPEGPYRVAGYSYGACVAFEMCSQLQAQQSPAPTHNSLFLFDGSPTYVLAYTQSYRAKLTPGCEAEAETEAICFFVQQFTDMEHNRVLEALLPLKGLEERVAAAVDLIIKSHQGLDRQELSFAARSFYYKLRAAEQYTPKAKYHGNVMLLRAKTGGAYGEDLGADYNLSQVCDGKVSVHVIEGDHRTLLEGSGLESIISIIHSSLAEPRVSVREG

## CCCCCCCCC1(C)SC(=O)C=C1OCC(=O)NNc1ccccc1Cl (stereo not drawn) [Compound 19, (5-Methyl-5-octyl-2-oxo-thiophen-4-yloxy)-acetic-acid-N′-(2-chlorophenyl)-hydrazide]
FAO
  FAO Max: concentration at which the maximum was seen: 0.125 µg/mL
  FAO SC 150: Neg
  FAO Max: 90% @
[1]
  IC50: 6.1 ± 0.3 µg/mL (≈ 14.4 µM)
OV
  IC50: 9.4 µg/mL (≈ 22.1 µM)
Purified human FAS
  FAS (IC50): Neg

## CCCCCCCCC1(C)SC(=O)C=C1OCC(=O)NNC(=O)c1ccncc1 (stereo not drawn) [Compound 20]
FAO
  FAO Max: concentration at which the maximum was seen: 0.125 µg/mL
  FAO SC 150: Neg
  FAO Max: 89% @
[1]
  IC50: 22.5 ± 2 µg/mL (≈ 53.6 µM)
OV
  IC50: 33 ± 9.1 µg/mL (≈ 78.7 µM)
Purified human FAS
  FAS (IC50): Neg
